Experimental data as given in patent US6642411B1, “Compounds and compositions for delivering active agents” (Emisphere Technologies, Inc., priority 1998, dated 2003).
In brackets after ≈: the same amount, converted by molar mass. Read-outs that look alike come from different tables or passages of the source.

Assay: Solubility of the carrier compound
Assay type: physicochemical

| SMILES | solubility (aqueous NaOH solution, aqueous buffer, thermodynamic from solid, 200 mg+350 μl 2N NaOH+650 μl H2O, pH 7.67, read-out: Solubility) | solubility (clear solution, pH=6.85) |
| --- | --- | --- |
| CC(C(=O)O)c1ccc(NC(=O)c2ccccc2O)cc1 (centres unmarked) [Example 1, 2-(4-(N-salicyloyl)aminophenyl)propionic acid] | 200 mg/mL (≈ 701 mM) |  |
| CC(C(=O)[O-])c1ccc(NC(=O)c2ccccc2O)cc1.[Na+] (centres unmarked) [Example 2, sodium 2-(4-(N-salicyloyl)aminophenyl)propionate] |  | 200 mg/mL |
